Publication PMC12481569, “Novltex: A New Class of Antibiotics with Potent Activity against Multidrug-Resistant Bacterial Pathogens–Design, Synthesis, and Biological Evaluation” (Journal of Medicinal Chemistry, 2025)
Positions of bridges follow the written chain, without caps; N, C: chain ends. Non-standard residues stand in square brackets, D forms with d. Residues, ends and D or L forms follow the SMILES beside them. dCha = N[C@H](CC1CCCCC1)C(=O)O

Legend:
HEK293T = assay: Cytotoxicity, MTS-based assay; format: cell-based, human; conditions: up to 50 μg/mL, 24 or 48 h, three independent experiments in triplicate
Procedure: (§1) 4 Cytotoxicity evaluation of analogue 12. Human primary dermal fibroblasts (A), liver cell line HepG2 (B), and kidney cell line HEK293T (C) cells (5 × 10^3 cells/well in 96-well plates) were treated with increasing concentrations of analogue 12 or 1 μM staurosporine (STS, used as a positive toxicity control) for 24 or 48 h, as indicated. Viability of cells was determined using an MTS-based assay. Results (% cell viability) are the mean ± SD of three independent experiments performed in triplicate. (D) Freshly collected human red blood cells (RBCs) were exposed to increasing concentrations of 12 or Triton X-100 (TX), as indicated, for 1 h. Hemolytic activity (% hemolysis) was determined by spectrophotometrically measuring the release of hemoglobin compared to that with TX (used as a positive control). Results are the mean ± SD of 4 independent experiments performed in duplicate using blood samples from four different anonymous healthy donors. […]
(§2) Bacterial cultures were grown overnight on Mueller-Hinton Agar (MHA) plates and adjusted to a final inoculum of 10^5 – 10^6 CFU/mL. […] MIC values were determined in the media contain ing polysorbate 80 (0.002%, v/v) to prevent non -specific adsorption of the peptides to plastic surfaces. […] All the experiments were performed in two independent duplicates and the MIC was determined as the lowest concentration in which no visible growth was observed. […]

HepG2 = assay: Cytotoxicity, MTS-based assay; format: cell-based, human; conditions: up to 50 μg/mL, 24 or 48 h, three independent experiments in triplicate
Procedure: as §1, §2

MRSA DM21455 = assay: Cytoplasmic membrane potential DiSC3(5) assay; format: cell-based, Staphylococcus aureus; conditions: 1× to 16× MIC, 1 h, room temperature, ex 622/em 670 nm; pronounced at 4× MIC
Procedure: To determine whether the bactericidal activity of analogue 12 is linked to bacterial membrane perturbations, we performed a DiSC3(5) assay, which utilizes a membrane-potential-sensitive dye to assess cytoplasmic membrane depolarization of MRSA. […]
day, cells were treated in triplicates with increasing concentrations of Novltex analogue 12, as indicated in the corresponding figure and the figure legend (Figure 4A-C). Cells were treated with 1 µM Staurosporine (MedChemExpress #HY-15141) as a positive kill control. Cell viability assessed after 24 h or 48 h incubation using an MTS-based CellTiter 96® AQueous One Solution Cell Proliferation Assay (Promega #G3582, Southampton UK) as per manufacturer’s instructions. Absorbance was recorded at 490 nm. Relative cell viability was determined by subtracting the blank (cell culture medium and MTS only) from individual values before normalizing against the untreated control.
Anonymized human blood samples were received from the Health Sciences Authority, Singapore and used as per the institutional guidelines and approved by the Institutional Review Board (IRB -2023-1019) of Nanyang Technological University Singapore. […] The supernatant was transferred to a new 96-well microplate and the absorbance was measured at 576 nm in the Infinite M200 monochromator microplate reader (Tecan Group Ltd., Switzerland). […]

Compound: CC(C)C[C@@H]1NC(=O)[C@H](C)NC(=O)[C@H](NC(=O)[C@H](CO)NC(=O)[C@@H](CCCCN)NC(=O)[C@@H](CC2CCCCC2)NC(=O)[C@@H](N)Cc2ccccc2)[C@H](C)OC(=O)[C@H](CC(C)C)NC1=O [analogue 12, Leu2Cha–Novltex] (H-F[dCha][dK]S[dT]ALL; ester 5-C)
- cytotoxicity (cell viability), HEK293T (HEK293T): no major cytotoxicity
- cytotoxicity (cell viability), HepG2 (HepG2): no major cytotoxicity
- change in DiSC3(5) fluorescence intensity (membrane depolarization) (MRSA DM21455): substantial increase in fluorescence intensity
